From patent US6534523B1, “Hepatitis C inhibitor tri-peptides” (Boehringer Ingelheim (Canada) Ltd., priority 1998, dated 2003)

The molecules below were run against HCV NS3 protease (UniProt P26663). Conditions: Table 6.
Format: biochemical, HCV genotype 1b
Design: rows headed: IC50 (μM); IC50 (μM)
Experimental: Recombinant HCV NS3 Protease/NS4A Cofactor Peptide Radiometric Assay
The enzyme was cloned, expressed and prepared according to the protocol described in Example 36. The enzyme was stored at −80° C., thawed on ice and diluted just prior to use in the assay buffer containing the NS4A cofactor peptide.
The substrate used for the NS3 protease/NS4A cofactor peptide radiometric assay, DDIVPC-SMSYTW, is cleaved between the cysteine and the serine residues by the enzyme. The sequence DDIVPC-SMSYTW corresponds to the NS5A/NS5B natural cleavage site in which the cysteine residue in P2 has been substituted for a proline. […] (molar ratio enzyme:cofactor 1:100) in the absence or presence of inhibitors. The separation of substrate from products is performed by adding avidin-coated agarose beads to the assay mixture followed by filtration. The amount of SMS[^125I-Y]TW product found in the filtrate allows for the calculation of the percentage of substrate conversion and of the percentage of inhibition.
The enzymatic reaction was initiated by the addition of the enzyme/NS4A peptide solution and the assay mixture was incubated for 40 min at 23° C. under gentle agitation. Ten (10) μL of 0.5N NaOH were added and 10 μL 1 M MES, pH 5.8 were added to quench the enzymatic reaction.
A non-linear curve fit with the Hill model was applied to the inhibition-concentration data, and the 50% effective concentration (IC50) was calculated by the use of SAS software (Statistical Software System; SAS Institute, Inc. Cary, N.C.). […]
The NS2-NS5B-3′ non coding region was cloned by RT-PCR into the pCR®3 vector (Invitrogen) using RNA extracted from the serum of an HCV genotype 1b infected individual (provided by Dr. Bernard Willems, Hôpital St-Luc, Montréal, Québec, Canada). The NS3-NS4A DNA region was then subcloned by PCR into the pFastBac™ HTa baculovirus expression vector (Gibco/BRL). The vector sequence includes a region encoding a 28-residue N-terminal sequence which contains a hexahistidine tag. The Bac-to-Bac™ baculovirus expression system (Gibco/BRL) was used to produce the recombinant baculovirus. The full length mature NS3 and NS4A heterodimer protein (His-NS3-NS4AFL) was expressed by infecting 10^6 Sf21 cells/mL with the recombinant baculovirus at a multiplicity of infection of 0.1-0.2 at 27° C. The infected culture was harvested 48 to 64 h later by centrifugation at 4° C. The cell pellet was homogenized in 50 mM NaPO4, pH 7.5, 40% glycerol (w/v), 2 mM β-mercaptoethanol, in presence of a cocktail of protease inhibitors. His-NS3-NS4AFL was then extracted from the cell lysate with 1.5% NP-40, 0.5% Triton X-100, 0.5M NaCl, and a DNase treatment. After ultracentrifugation, the soluble extract was diluted 4-fold and bound on a Pharmacia Hi-Trap Ni-chelating column. […] The His-NS3-NS4AFL was stored at −80° C. in 50 mM sodium phosphate, pH 7.5, 10% (w/v) glycerol, 0.5 M NaCl, 0.25 M imidazole, 0.1% NP-40. It was thawed on ice and diluted just prior to use. The protease activity of His-NS3-NS4AFL was assayed in 50 mM Tris-HCl, pH 8.0, 0.25 M sodium citrate, 0.01% (w/v) n-dodecyl-β-D-maltoside, 1 mM TCEP. Five (5) μM of the internally quenched substrate anthranilyl-DDIVPAbu[C(O)—O]-AMY(3-NO2)TW-OH in presence of various concentrations of inhibitor were incubated with 1.5 nM of His-NS3-NS4AFL for 45 min at 23° C. […] The reaction was terminated with the addition of 1M MES, pH 5.8. Fluorescence of the N-terminal product was monitored on a Perkin-Elmer LS-50B fluorometer equipped with a 96-well plate reader (excitation wavelength: 325 nm; emission wavelength: 423 nm).
The following tables list compounds representative of the invention.

Sequence of HCV NS3 protease (P26663 1027-1206, other chains not shown): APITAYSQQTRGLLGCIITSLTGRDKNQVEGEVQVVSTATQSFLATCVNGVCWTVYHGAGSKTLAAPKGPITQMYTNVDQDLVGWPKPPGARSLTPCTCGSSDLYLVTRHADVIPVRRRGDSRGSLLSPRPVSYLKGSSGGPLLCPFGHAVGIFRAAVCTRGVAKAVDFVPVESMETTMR

| Structure (SMILES) | IC50 |
| --- | --- |
| C=CC1CC1(NC(=O)C1CC(Oc2ccnc3cc(Cl)ccc23)CN1C(=O)C(NC(=O)OC(C)(C)C)C(C)(C)C)C(=O)O (centres unmarked) [compound 606] | 0.48 µM |
| C=CC1CC1(NC(=O)C1CC(Oc2ccnc3cc(Cl)ccc23)CN1C(=O)C(NC(=O)OC(C)(C)C)C(C)C)C(=O)O (centres unmarked) [compound 607] | 0.45 µM |
| C=CC1CC1(NC(=O)C1CC(Oc2ccnc3cc(Cl)ccc23)CN1C(=O)C(CC(C)C)NC(=O)OC(C)(C)C)C(=O)O (centres unmarked) [compound 608] | 1.45 µM |
| C=CC1CC1(NC(=O)C1CC(Oc2cc(CN3CCOCC3)nc3ccccc23)CN1C(=O)C(NC(=O)OC(C)(C)C)C(C)(C)C)C(=O)O (centres unmarked) [compound 609] | 1.7 µM |
| C=CC1CC1(NC(=O)C1CC(Oc2cc(Cl)nc3ccccc23)CN1C(=O)C(NC(=O)OC(C)(C)C)C(C)(C)C)C(=O)O (centres unmarked) [compound 610] | 0.25 µM |
| C=CC1CC1(NC(=O)C1CC(Oc2cc(-c3ccccc3)nc3cc(N(C)C)ccc23)CN1C(=O)C(NC(=O)OC(C)(C)C)C(C)(C)C)C(=O)O (centres unmarked) [compound 611] | 0.035 µM |
| C=CC1CC1(NC(=O)C1CC(Oc2cc(N3CCOCC3)nc3ccccc23)CN1C(=O)C(NC(=O)OC(C)(C)C)C(C)(C)C)C(=O)O (centres unmarked) [compound 612] | 0.278 µM |
| C=CC1CC1(NC(=O)C1CC(Oc2cc(N3CCCC3)nc3ccccc23)CN1C(=O)C(NC(=O)OC(C)(C)C)C(C)(C)C)C(=O)O (centres unmarked) [compound 613] | 1 µM |
| C=CC1CC1(NC(=O)C1CC(Oc2cc(CN3CCCC3)nc3ccccc23)CN1C(=O)C(NC(=O)OC(C)(C)C)C(C)(C)C)C(=O)O (centres unmarked) [compound 614] | 2.2 µM |
| C=CC1CC1(NC(=O)C1CC(Oc2ccnc3cc(N(C)C)ccc23)CN1C(=O)C(NC(=O)OC(C)(C)C)C(C)(C)C)C(=O)O (centres unmarked) [compound 615] | 0.16 µM |
| C=CC1CC1(NC(=O)C1CC(Oc2cc(N3CCCCC3)nc3ccccc23)CN1C(=O)C(NC(=O)OC(C)(C)C)C(C)(C)C)C(=O)O (centres unmarked) [compound 617] | 0.345 µM |
| C=CC1CC1(NC(=O)C1CC(Oc2cc(CN(C)C)nc3ccccc23)CN1C(=O)C(NC(=O)OC(C)(C)C)C(C)(C)C)C(=O)O (centres unmarked) [compound 618] | 2.3 µM |
| C=CC1CC1(NC(=O)C1CC(Oc2cc(-c3csc(C)n3)nc3ccccc23)CN1C(=O)C(NC(=O)OC(C)(C)C)C(C)(C)C)C(=O)O (centres unmarked) [compound 621] | 0.058 µM |
| C=CC1CC1(NC(=O)C1CC(Oc2cc(OCC)nc3ccccc23)CN1C(=O)C(NC(=O)OC(C)(C)C)C(C)(C)C)C(=O)O (centres unmarked) [compound 622] | 0.16 µM |
| C=CC1CC1(NC(=O)C1CC(Oc2cc(OC)nc3ccccc23)CN1C(=O)C(NC(=O)OC(C)(C)C)C(C)(C)C)C(=O)O (centres unmarked) [compound 623] | 0.2 µM |
| C=CC1CC1(NC(=O)C1CC(Oc2cc(N(C)C)nc3ccccc23)CN1C(=O)C(NC(=O)OC(C)(C)C)C(C)(C)C)C(=O)O (centres unmarked) [compound 624] | 1.3 µM |
| C=CC1CC1(NC(=O)C1CC(Oc2cc(-c3ccccc3)nc3cc(SC)ccc23)CN1C(=O)C(NC(=O)OC(C)(C)C)C(C)(C)C)C(=O)O (centres unmarked) [compound 625] | 0.16 µM |
| C=CC1CC1(NC(=O)C1CC(Oc2cc(-c3ccccc3)nc3cc(Br)ccc23)CN1C(=O)C(NC(=O)OC(C)(C)C)C(C)(C)C)C(=O)O (centres unmarked) [compound 626] | 0.24 µM |
| C=CC1CC1(NC(=O)C1CC(Oc2cc(-c3ccccc3)nc3cc(F)ccc23)CN1C(=O)C(NC(=O)OC(C)(C)C)C(C)(C)C)C(=O)O (centres unmarked) [compound 627] | 0.33 µM |
| C=CC1CC1(NC(=O)C1CC(Oc2cc(-c3csc(NC(C)=O)n3)nc3cc(N(C)C)ccc23)CN1C(=O)C(NC(=O)OC(C)(C)C)C(C)(C)C)C(=O)O (centres unmarked) [compound 628] | 0.011 µM |
| C=CC1CC1(NC(=O)C1CC(Oc2cc(-c3csc(NC(C)C)n3)nc3cc(N(C)C)ccc23)CN1C(=O)C(NC(=O)OC(C)(C)C)C(C)(C)C)C(=O)O (centres unmarked) [compound 629] | 0.02 µM |
| C=CC1CC1(NC(=O)C1CC(Oc2cc(-c3csc(NC(C)=O)n3)nc3cc(N(CC)CC)ccc23)CN1C(=O)C(NC(=O)OC(C)(C)C)C(C)(C)C)C(=O)O (centres unmarked) [compound 630] | 0.043 µM |

Same assay, conditions: Table 7

| Structure (SMILES) | IC50 |
| --- | --- |
| C=CC1CC1(NC(=O)C1CC(Oc2cc(-c3cnn(C)c3)nc3cc(OC)ccc23)CN1C(=O)C(NC(=O)OC(C)(C)C)C(C)(C)C)C(=O)O (centres unmarked) [compound 701] | 0.028 µM |
| C=CC1CC1(NC(=O)C1CC(Oc2cc(C=Cc3ccccc3)nc3cc(OC)ccc23)CN1C(=O)C(NC(=O)OC(C)(C)C)C(C)(C)C)C(=O)O (centres unmarked) [compound 702] | 0.1 µM |
| C=CC1CC1(NC(=O)C1CC(Oc2cc(OCC)nc3cc(OC)ccc23)CN1C(=O)C(NC(=O)OC(C)(C)C)C(C)(C)C)C(=O)O (centres unmarked) [compound 703] | 0.047 µM |
| C=CC1CC1(NC(=O)C1CC(Oc2cc(N3CCc4ccccc43)nc3cc(OC)ccc23)CN1C(=O)C(NC(=O)OC(C)(C)C)C(C)(C)C)C(=O)O (centres unmarked) [compound 704] | 0.24 µM |
| C=CC1CC1(NC(=O)C1CC(Oc2cc(N3CCOCC3)nc3cc(OC)ccc23)CN1C(=O)C(NC(=O)OC(C)(C)C)C(C)(C)C)C(=O)O (centres unmarked) [compound 705] | 0.13 µM |
| C=CC1CC1(NC(=O)C1CC(Oc2cc(-c3cccs3)nc3cc(OC)ccc23)CN1C(=O)C(NC(=O)OC(C)(C)C)C(C)(C)C)C(=O)O (centres unmarked) [compound 706] | 0.032 µM |
| C=CC1CC1(NC(=O)C1CC(Oc2cc(-c3nccs3)nc3cc(OC)ccc23)CN1C(=O)C(NC(=O)OC(C)(C)C)C(C)(C)C)C(=O)O (centres unmarked) [compound 707] | 0.023 µM |
| C=CC1CC1(NC(=O)C1CC(Oc2cc(N(C)c3ccccc3)nc3cc(OC)ccc23)CN1C(=O)C(NC(=O)OC(C)(C)C)C(C)(C)C)C(=O)O (centres unmarked) [compound 708] | 0.15 µM |
| C=CC1CC1(NC(=O)C1CC(Oc2cc(-c3csc(N)n3)nc3cc(OC)ccc23)CN1C(=O)C(NC(=O)OC(C)(C)C)C(C)(C)C)C(=O)O (centres unmarked) [compound 709] | 0.021 µM |
| C=CC1C[C@]1(NC(=O)[C@@H]1C[C@@H](Oc2cc(C(=O)O)nc3cc(OC)ccc23)CN1C(=O)[C@@H](NC(=O)OC(C)(C)C)C(C)(C)C)C(=O)O (some centres unmarked) [compound 710] | 0.685 µM |
| C=CC1CC1(NC(=O)C1CC(Oc2cc(-c3csc(C)n3)nc3cc(OC)ccc23)CN1C(=O)C(NC(=O)OC(C)(C)C)C(C)(C)C)C(=O)O (centres unmarked) [compound 711] | 0.016 µM |
| C=CC1C[C@]1(NC(=O)[C@@H]1C[C@@H](Oc2cc(N(C)C)nc3cc(OC)ccc23)CN1C(=O)[C@@H](NC(=O)OC(C)(C)C)C(C)(C)C)C(=O)O (some centres unmarked) [compound 712] | 0.1 µM |
| C=CC1CC1(NC(=O)C1CC(Oc2cc(-c3cscn3)nc3cc(OC)ccc23)CN1C(=O)C(NC(=O)OC(C)(C)C)C(C)(C)C)C(=O)O (centres unmarked) [compound 713] | 0.026 µM |
| C=CC1CC1(NC(=O)C1CC(Oc2cc(-c3csc(CC)n3)nc3cc(OC)ccc23)CN1C(=O)C(NC(=O)OC(C)(C)C)C(C)(C)C)C(=O)O (centres unmarked) [compound 714] | 0.012 µM |
| C=CC1CC1(NC(=O)C1CC(Oc2cc(-c3ccccn3)nc3cc(OC)ccc23)CN1C(=O)C(NC(=O)OC(C)(C)C)C(C)(C)C)C(=O)O (centres unmarked) [compound 715] | 0.031 µM |
| C=CC1CC1(NC(=O)C1CC(Oc2cc(-c3cccnc3)nc3cc(OC)ccc23)CN1C(=O)C(NC(=O)OC(C)(C)C)C(C)(C)C)C(=O)O (centres unmarked) [compound 716] | 0.079 µM |
| C=CC1CC1(NC(=O)C1CC(Oc2cc(-c3csc(NC)n3)nc3cc(OC)ccc23)CN1C(=O)C(NC(=O)OC(C)(C)C)C(C)(C)C)C(=O)O (centres unmarked) [compound 717] | 0.028 µM |
| C=CC1C[C@]1(NC(=O)[C@@H]1C[C@@H](Oc2cc(N)nc3cc(OC)ccc23)CN1C(=O)[C@@H](NC(=O)OC(C)(C)C)C(C)(C)C)C(=O)O (some centres unmarked) [compound 718] | 0.16 µM |
| C=CC1CC1(NC(=O)C1CC(Oc2cc(-c3csc(NC(C)=O)n3)nc3cc(OC)ccc23)CN1C(=O)C(NC(=O)OC(C)(C)C)C(C)(C)C)C(=O)O (centres unmarked) [compound 719] | 0.018 µM |
